Source: patent US20240350475A1, “TR[…] CARD[…] BY SARS-COV-2 SPIKE PROTEIN UNDER OBESITY” (priority 2023, published 2024)
“Also recorded” adds a separate entry of the source.

What was measured:
[1] = tested on: HEK_Spike cells; assay: Palmitic acid (PA)-induced lipotoxicity assay in Spike cells, with or without inhibitors (PI/Hoechst cell viability); assay type: cell-based, Human; details: for PA-induced Spike protein-exaggerated lipotoxicity (necrosis, cell viability): Spike cells, then 750 M PA 24 h, DMEM 5% FBS
Protocol: (§1) The HEK293, HEK_pcDNA, and HEK_Spike cells were cultured in a 96-well plate and reached to 80% confluence on the next day before treatment. The cells were kept in DMEM medium with 5% FBS during the entire treatment procedure. The cells were treated with PA (free BSA) in various concentrations from 250 to 1000 M for 24, 48, or 72 h.
(§2) For treatment control groups, the cells were treated by the same concentrations of BSA in parallel. For the inhibitory assay, the cells were pre-incubated by autophagic inhibitors (125 M trigonelline (TRG), or 10 M Wortmannin), or a ferropotosis inhibitor (ferrostatin, 2 M), or an […] (necrostatin-1, 10 M) in DMEM medium with 5% FBS for 2 h, followed by 750 M PA treatment for 24 h. The cells were then co-stained by Propidium Iodide (PI) and Hoechst 33342 NucBlue Live Cell Stain dye (ThermoFisher) to show the dead and live cells. The dyes were excited at 535 nm and 405 nm, respectively. TRG may be provided over a range of concentration such as 50 to 300 M, 60 to 290, 70 to 280, 80 to 270, 90 to 260, 100 to 250, 110 to 240, 120 to 230, 130 to 220, 140 to 210, 150 to 200, 160 to 190, 170 to 180, as well as sub ranges such as from 100M to 200 M, 125M to 175 M, etc., also include individual concentrations, such as 125M, 150 M, 175M, etc. Wortmannin may be provided over a range of concentrations from 5 to 100, 10 to 90, 15 to 80, 20 to 70, 25 to 60, 30 to 50 M, etc., including subranges and individual concentrations within these ranges.
Images were acquired and cell viability analyses were performed using an ImagXpress Pico Automated system.

[2] = tested on: HEK293 and HEK_pcDNA cells; assay: Palmitic acid (PA)-induced lipotoxicity assay in control cells; assay type: cell-based, Human; details: PA overload; HEK293 (mock) and pcDNA cells; DMEM 5% FBS
Protocol: as §1
as §2, with “Wortmannin may be provided over a range of concentrations from 5 to 100, 10 to 90, 15 to 80, 20 to 70, 25 to 60, 30 to 50 M, etc., including subranges and individual concentrations within these ranges.” left out

[3] = tested on: H9C2 cells; assay: Spike-exosome induced mitochondrial morphology change in H9C2 cells (MitoTracker, confocal); assay type: cell-based; details: spike-exo 150 μg exosomal proteins in 1 ml medium plus TRG 125 μM, 5 days
[4] = tested on: H9C2 cells
[5] = tested on: Human dermal microvascular ECs (hDMVECs); assay type: cell-based

CCCCCCCCCCCCCCCC(=O)O [PA, Palmitic acid]
effect of PA on the Spike cells ([1]; 500 M and 250 M PA, after 72 h treatment): modest or mild effect
PA-induced cell death (lipotoxicity) ([1]; Spike cells versus mock and pcDNA cells, PA 750 or 1000 M, 24 to 72 h): significantly augmented
PA-induced cell death (lipotoxicity) [2]: induced cell death

C[n+]1cccc(C(=O)[O-])c1 [TRG, Trigonelline]
spike-exo induced mitochondrial fusion (mitochondrial morphology) [3]: can reverse
PA-induced Spike protein-exaggerated lipotoxicity (cell viability) [4]: could be reversed
cellular ROS levels [5]: attenuated
density of mitochondria decreased by Spike-EVs plus LDL-c [5]: could restore
diameter of mitochondria decreased by Spike-EVs plus LDL-c [5]: could restore
PA-induced Spike protein-exaggerated lipotoxicity (necrosis, cell viability) ([1]; pre-incubated with 125 M TRG 2 h): can attenuate; also recorded: can be suppressed; also recorded: significantly mitigated
PA-induced Spike protein-exaggerated lipotoxicity (necrosis, cell viability) ([1]; pre-incubated with 125 M TRG 2 h, listed as trigonelline): could be attenuated

CCOC(=O)c1ccc(NC2CCCCC2)c(N)c1 [ferrostatin]
PA-induced Spike protein-exaggerated lipotoxicity (necrosis, cell viability) ([1]; pre-incubated with ferrostatin 2 M 2 h): significantly mitigated
PA-induced Spike protein-exaggerated lipotoxicity (necrosis, cell viability) ([1]; pre-incubated with ferrostatin 2 M 2 h, listed as ferrostatin 1): can be suppressed
